Measured values reported in publication PMC8277899, “A novel RyR1-selective inhibitor prevents and rescues sudden death in mouse models of malignant hyperthermia and heat stroke” (Nature Communications, 2021).
Converted amounts (≈) assume the structure as drawn. “And” between values parts separate entries of the source, which are not always exact repeats. Identical values can stand only once. Like-named read-outs stand apart in the source and are kept apart here.

Key:
[1] = test system: soleus muscles from WT mice; test: Muscle force in vitro, soleus from WT mice (heat contracture, twitch, tetanus); format: cell-based, mouse; design: stress (stress-frequency relationship): unit not given beside the values
Protocol: Muscle contraction measurement was assessed using intact soleus muscle as follows. WT and R2509C mice (8- to 20-week old) were anesthetized with an i.p. injection of sodium pentobarbital (70 mg/kg body weight) and the soleus muscles were dissected. The isolated muscles were mounted between a force transducer (UL-100; Minebea Co., Tokyo, Japan) and a fixed hook in a chamber containing Krebs solution (140 mmol/L NaCl, 5 mmol/L KCl, 2 mmol/L CaCl2, 1 mmol/L MgCl2, 1 mmol/L NaH2PO4, 25 mmol/L NaHCO3, and 11 mmol/L glucose) bubbled with 95% O2 and 5% CO2 at 25 °C. The muscle force was recorded and analyzed by LabChart v6 (AdInstruments, Dunedin, New Zealand). The muscles were stretched to determine the length which produced maximum twitch contraction in response to field stimulation for 1 msec at supramaximal voltage. For caffeine contracture studies, muscles were exposed for 2 min to Krebs solution containing 10, 15, or 20 mM caffeine. For heat-induced contracture studies, muscles were exposed to Krebs solution warmed at 27, 35, 40, and 42 °C until basal force peaked. For twitch and tetanic contraction measurements, muscles were stimulated at 1 min intervals with 20 trains of 1, 2, 5, 10, 20, 50, 100, and 200 Hz pulses. For Cpd1 treatment, muscles were incubated with Krebs solution containing 3 µM Cpd1 15 min prior to measurements. Absolute contractile force was normalized to the maximum diameter of the muscle.

R2509C mice [2] = format: in vivo, mouse; conditions: for Survival 60 min after administration (survivors/total) / mice surviving 60 min after administration: rescue
R2509C mice [3] = format: in vivo, mouse
G2435R mice = test: In vivo heat stress challenge in awake restrained G2435R mice (38 °C chamber); design: species or system mouse; conditions: pretreatment 30 mg/kg
WT mice = test: Muscle force in vivo, grip force test (4-grips test), WT mice; design: species or system mouse; conditions: for grip force (sheet Fig S6b): single mice; for grip force normalized by body weight: 8-times injection of 1 mg/kg at 10 min intervals, 1 mg/kg
G2435R FDB fibers = test: Mn2+ quench assay in FDB fibers from G2435R mice; format: cell-based, mouse; conditions: 10 µM
Protocol: WT and mutant mice (R2509C, 8- to 20-week old; R163C, 12- to 16-week old, and G2435R, 12- to 16-week old) were euthanized and flexor digitorum brevis (FDB) muscles were dissected and incubated with 2 mg/mL collagenase (Worthington Biochemical Co., NJ, USA) in the HEPES-Krebs solution containing 2 mg/mL bovine serum albumin for 2–3 h at 37 °C. Following incubation, single cells were separated by gentle trituration in collagenase-free HEPES-Krebs solution. Isolated single FDB cells were seeded on a laminin-coated cover slip of the 35 mm glass-bottom dish or on 96 well plate coated with Cultrex basement membrane matrix (Trevigen, Minneapolis, USA).
Assays were carried out as follows[38]: 5 µM of fura2-AM dye (Thermo Fisher Scientific) dissolved in mammalian Ringer solution (133 mM NaCl, 5 mM KCl, 1 mM MgSO4, 25 mM HEPES, 5.5 mM glucose, 2 mM CaCl2, pH 7.4) was loaded into dissociated WT and homozygous G2435R FDB fibers in 96 well plates for 30 min at 37 °C, 5% CO2. […] Fura-2 was illuminated at its isosbestic wavelength (360 nm) with the X-Cite 120 metal halide light source (Exfo, Ontario, Canada) and fluorescence emission at 510 nm was recorded using a 10 ×0.3na objective. […] The fluorescence signals were plotted as fluorescence arbitrary units (f.a.u.) over time. […]

[4] = Thermodynamic solubility in solutions for injection
[5] = 1 mg/kg i.p. 8 times every 10 min
[6] = preventive, 10 mg/kg i.p. 10 min before isoflurane, 10 mg/kg
[7] = preventive, 10 mg/kg 10 min before heat stress

CCCCCCCCn1cc(C(=O)O)c(=O)c2cc3c(cc21)OCO3 [Cpd1, 6,7-(methylenedioxy)-1-octyl-4-quinolone-3-carboxylic acid]
twitch tension ([1]; 3 μM Cpd1): 0.08926 and 0.06376 and 0.0706 and 0.1008 and 0.09044 | stress (stress-frequency relationship) ([1]; 3 μM Cpd1, 1 Hz): 0.07934 and 0.05313 and 0.0706 and 0.09238 and 0.1028 | stress (stress-frequency relationship) ([1]; 3 μM Cpd1, 2 Hz): 0.07934 and 0.05313 and 0.0706 and 0.09238 and 0.1028 | stress (stress-frequency relationship) ([1]; 3 μM Cpd1, 10 Hz): 0.08926 and 0.05313 and 0.0706 and 0.09238 and 0.09866 | stress (stress-frequency relationship) ([1]; 3 μM Cpd1, 50 Hz): 0.7934 and 0.7651 and 0.5531 and 0.7307 and 0.4851 | effect on rise in rectal temperature (R2509C mice [2]; 1 mg/kg i.p. 8 times at 10 min intervals, isoflurane): successfully prevented rise in the rectal temperature | Survival 90 min after isoflurane challenge (survivors/total) (R2509C mice [2]; [5]): all the mice survived | effect of second and third administrations on rectal temperature (R2509C mice [2]; 3 mg/kg i.p. each time rectal temperature reached 39 °C, isoflurane): successfully decreased the rectal temperature | effect on rise in rectal temperature (R2509C mice [2]; preventive, 3 mg/kg i.p.): did not prevent rise in rectal temperature | Survival after 90 min of anesthesia (survivors/total) (R2509C mice [2]; preventive, 3 mg/kg i.p. 10 min before isoflurane, 3 mg/kg): 1 out of 6 | Survival after 90 min of anesthesia (survivors/total) (R2509C mice [2]; preventive, 3 mg/kg i.p. 10 min before isoflurane, listed as Cpd 1, 3 mg/kg): 1/6 | Time to death (R2509C mice [2]; preventive, 3 mg/kg i.p., n = 5): 47 ± 15 min | effect on rise in rectal temperature (R2509C mice [2]; preventive, 10 mg/kg i.p.): successfully prevented any rise in rectal temperature | Maximum rectal temperature (R2509C mice [2]; [6]): 36.1797 °C and 35.7812 °C and 35.4844 °C and 36.3594 °C and 36.1344 °C and 36.1406 °C | Survival after 90 min of anesthesia (survivors/total) (R2509C mice [2]; [6]): All the treated mice survived | Survival 60 min after administration (survivors/total) (R2509C mice [2]; 3 mg/kg i.p. at 39 °C): 6/10 | mice surviving 60 min after administration (R2509C mice [2]; 3 mg/kg i.p. at 39 °C): 60% | Survival 60 min after administration (survivors/total) (R2509C mice [2]; 10 mg/kg i.p. at 39 °C): 8/8 | mice surviving 60 min after administration (R2509C mice [2]; 10 mg/kg i.p. at 39 °C): 100% | effect on rise in rectal temperature (R2509C mice [3]; 1 mg/kg i.p. 8 times at 10 min intervals, heat stress): successfully prevented rise in the rectal temperature | Survival 90 min after heat stress challenge (survivors/total) (R2509C mice [3]; [5]): all the mice survived | preventive effect in heat stress experiments (R2509C mice [3]; 3 mg/kg, preliminary experiments): no effect | effect on rate of temperature rise (R2509C mice [3]; preventive, 10 mg/kg): slowed the rate of temperature rise | Survival 120 min after heat stress challenge (survivors/total) (R2509C mice [3]; [7]): 0 out of 4 and 0/4 | Time to death from start of heat stress challenge (R2509C mice [3]; [7]): 115.67 min and 109.33 min and 83.5 min and 85 min | Survival 60 min after administration (survivors/total) (R2509C mice [3]; rescue, 3 mg/kg i.p. at 38 °C): 5/6 | Survival 60 min after administration (survivors/total) (R2509C mice [3]; rescue, 3 mg/kg i.p. at 39 °C, 3 mg/kg): 3/5 and 3 out of 5 | Survival 60 min after administration (survivors/total) (R2509C mice [3]; rescue, 10 mg/kg i.p. at 38 °C): 6/6 | Survival 60 min after administration (survivors/total) (R2509C mice [3]; rescue, 10 mg/kg i.p. at 39 °C, 10 mg/kg): 10/11 and 10 out of 11 | effect on continued rise in body temperature (R2509C mice [3]; rescue, 3 and 10 mg/kg i.p. at 38 °C): strongly suppressed | effect on rise in rectal temperature (G2435R mice): greatly slowed the rise in rectal temperature | grip force (sheet Fig S6b) (WT mice; 10 min after Cpd1): 10.7 and 8.11 and 9.35 and 11.39 | grip force (sheet Fig S6b) (WT mice; 60 min after Cpd1): 11.25 and 11.53 and 12.05 and 13.94 | grip force (sheet Fig S6b) (WT mice; Pre (before administration), Cpd1 group): 12.3 and 12.63 and 13.75 and 13.44 | reduction of muscle strength (WT mice; WT mice, 10 min after 10 mg/kg): 15% | recovery of muscle strength deficit (WT mice; WT mice, 60 min after 10 mg/kg): almost completely recovered | grip force normalized by body weight (WT mice; female WT, 10 min): 6.55 g/g BW and 8.77 g/g BW and 8.32 g/g BW | grip force normalized by body weight (WT mice; female WT, 30 min): 6.59 g/g BW and 8.18 g/g BW and 9 g/g BW | grip force normalized by body weight (WT mice; female WT, 60 min): 8.64 g/g BW and 8.82 g/g BW and 9.45 g/g BW | grip force normalized by body weight (WT mice; female WT, 120 min): 10.05 g/g BW and 9.64 g/g BW and 12.23 g/g BW | grip force normalized by body weight (WT mice; female WT, Pre): 9.86 g/g BW and 10.18 g/g BW and 11.36 g/g BW | grip force normalized by body weight (WT mice; male WT, 10 min): 6.56 g/g BW and 4.67 g/g BW and 5.04 g/g BW | grip force normalized by body weight (WT mice; male WT, 30 min): 7.19 g/g BW and 7.63 g/g BW and 7.37 g/g BW | grip force normalized by body weight (WT mice; male WT, 60 min): 8.81 g/g BW and 9.89 g/g BW and 10.81 g/g BW | grip force normalized by body weight (WT mice; male WT, 120 min): 9.48 g/g BW and 8.74 g/g BW and 9.44 g/g BW | grip force normalized by body weight (WT mice; male WT, Pre): 9.33 g/g BW and 9.22 g/g BW and 8.63 g/g BW | Mn2+ quench rate (G2435R FDB fibers): the same as that in untreated WT fibers | water solubility ([4]; free acid): virtually water insoluble | solubility in normal saline compared to dantrolene ([4]; normal saline): 34 fold | solubility at 48 h ([4]; normal saline (0.9% NaCl), 25 °C, saline or isotonic, thermodynamic from solid): 849 ± 58 µg/mL (≈ 2460 µM)
